Experiments:
[1] = test system: TET2^MT cells; assay: In vitro toxicity to TET2^MT cells; assay type: cell-based
[2] = test system: α-KG-dependent histone dioxygenases (H3K4 methylation); assay: Histone H3K4 methylation in treated cells; assay type: cell-based

Row | SMILES | LD50 for TET2^MT [1] | Change in H3K4 methylation [2]
1 | O=C(O)CCC(O)C(=O)O (centres unmarked) [2HG, 2-hydroxyglutarate] | in millimolar ranges | 
2 | COC(=O)CNC(=O)C(=O)OC [DMOG, methyl 2-[(2-methoxy-2-oxoethyl)amino]-2-oxoacetate] |  | significantly affected

From paper PMC7935131 (Blood cancer discovery, 2020)
